Measurements from patent US9896440B2, “Aryl substituted heterocyclyl sulfones” (GRÜNENTHAL GMBH, priority 2014, dated 2018).

Target: T1, Human CaV2.2 channels (Homo sapiens, UniProt Q00975)
T1 construct: expressed in transfected cells; Kir2.3 also stably co-expressed
Assay: Fluorescence assay for CaV2.2 channels using potassium depolarization to induce channel opening (FLIPR, Fluo 4)
Assay type: cell-based
Conditions: 30 mM KCl assay buffer (inactivated channel state), HEK293 cells; for Activity Category: %-Inhib (CaV2.2) @3 μM @30 mM KCl: 3 μM test compound; for inhibition at 3 µM: HEK293, 3 μM test compound, read-out: Activity Category: %-Inhib (CaV2.2) @3 μM @30 mM KCl
In short: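 HEK293 cells stably co-expressing human CaV2.2 with α2δ and β subunits plus Kir2.3, Fluo-4 loaded; compounds preincubated 15 min at 25 °C in 1 mM or 30 mM KCl buffer (inactivated state), pH 7.4. Depolarized by KCl addition; baseline-normalized peak fluorescence (ex 480/em 535 nm) gave inhibition.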

T1 sequence (Q00975 whole entry): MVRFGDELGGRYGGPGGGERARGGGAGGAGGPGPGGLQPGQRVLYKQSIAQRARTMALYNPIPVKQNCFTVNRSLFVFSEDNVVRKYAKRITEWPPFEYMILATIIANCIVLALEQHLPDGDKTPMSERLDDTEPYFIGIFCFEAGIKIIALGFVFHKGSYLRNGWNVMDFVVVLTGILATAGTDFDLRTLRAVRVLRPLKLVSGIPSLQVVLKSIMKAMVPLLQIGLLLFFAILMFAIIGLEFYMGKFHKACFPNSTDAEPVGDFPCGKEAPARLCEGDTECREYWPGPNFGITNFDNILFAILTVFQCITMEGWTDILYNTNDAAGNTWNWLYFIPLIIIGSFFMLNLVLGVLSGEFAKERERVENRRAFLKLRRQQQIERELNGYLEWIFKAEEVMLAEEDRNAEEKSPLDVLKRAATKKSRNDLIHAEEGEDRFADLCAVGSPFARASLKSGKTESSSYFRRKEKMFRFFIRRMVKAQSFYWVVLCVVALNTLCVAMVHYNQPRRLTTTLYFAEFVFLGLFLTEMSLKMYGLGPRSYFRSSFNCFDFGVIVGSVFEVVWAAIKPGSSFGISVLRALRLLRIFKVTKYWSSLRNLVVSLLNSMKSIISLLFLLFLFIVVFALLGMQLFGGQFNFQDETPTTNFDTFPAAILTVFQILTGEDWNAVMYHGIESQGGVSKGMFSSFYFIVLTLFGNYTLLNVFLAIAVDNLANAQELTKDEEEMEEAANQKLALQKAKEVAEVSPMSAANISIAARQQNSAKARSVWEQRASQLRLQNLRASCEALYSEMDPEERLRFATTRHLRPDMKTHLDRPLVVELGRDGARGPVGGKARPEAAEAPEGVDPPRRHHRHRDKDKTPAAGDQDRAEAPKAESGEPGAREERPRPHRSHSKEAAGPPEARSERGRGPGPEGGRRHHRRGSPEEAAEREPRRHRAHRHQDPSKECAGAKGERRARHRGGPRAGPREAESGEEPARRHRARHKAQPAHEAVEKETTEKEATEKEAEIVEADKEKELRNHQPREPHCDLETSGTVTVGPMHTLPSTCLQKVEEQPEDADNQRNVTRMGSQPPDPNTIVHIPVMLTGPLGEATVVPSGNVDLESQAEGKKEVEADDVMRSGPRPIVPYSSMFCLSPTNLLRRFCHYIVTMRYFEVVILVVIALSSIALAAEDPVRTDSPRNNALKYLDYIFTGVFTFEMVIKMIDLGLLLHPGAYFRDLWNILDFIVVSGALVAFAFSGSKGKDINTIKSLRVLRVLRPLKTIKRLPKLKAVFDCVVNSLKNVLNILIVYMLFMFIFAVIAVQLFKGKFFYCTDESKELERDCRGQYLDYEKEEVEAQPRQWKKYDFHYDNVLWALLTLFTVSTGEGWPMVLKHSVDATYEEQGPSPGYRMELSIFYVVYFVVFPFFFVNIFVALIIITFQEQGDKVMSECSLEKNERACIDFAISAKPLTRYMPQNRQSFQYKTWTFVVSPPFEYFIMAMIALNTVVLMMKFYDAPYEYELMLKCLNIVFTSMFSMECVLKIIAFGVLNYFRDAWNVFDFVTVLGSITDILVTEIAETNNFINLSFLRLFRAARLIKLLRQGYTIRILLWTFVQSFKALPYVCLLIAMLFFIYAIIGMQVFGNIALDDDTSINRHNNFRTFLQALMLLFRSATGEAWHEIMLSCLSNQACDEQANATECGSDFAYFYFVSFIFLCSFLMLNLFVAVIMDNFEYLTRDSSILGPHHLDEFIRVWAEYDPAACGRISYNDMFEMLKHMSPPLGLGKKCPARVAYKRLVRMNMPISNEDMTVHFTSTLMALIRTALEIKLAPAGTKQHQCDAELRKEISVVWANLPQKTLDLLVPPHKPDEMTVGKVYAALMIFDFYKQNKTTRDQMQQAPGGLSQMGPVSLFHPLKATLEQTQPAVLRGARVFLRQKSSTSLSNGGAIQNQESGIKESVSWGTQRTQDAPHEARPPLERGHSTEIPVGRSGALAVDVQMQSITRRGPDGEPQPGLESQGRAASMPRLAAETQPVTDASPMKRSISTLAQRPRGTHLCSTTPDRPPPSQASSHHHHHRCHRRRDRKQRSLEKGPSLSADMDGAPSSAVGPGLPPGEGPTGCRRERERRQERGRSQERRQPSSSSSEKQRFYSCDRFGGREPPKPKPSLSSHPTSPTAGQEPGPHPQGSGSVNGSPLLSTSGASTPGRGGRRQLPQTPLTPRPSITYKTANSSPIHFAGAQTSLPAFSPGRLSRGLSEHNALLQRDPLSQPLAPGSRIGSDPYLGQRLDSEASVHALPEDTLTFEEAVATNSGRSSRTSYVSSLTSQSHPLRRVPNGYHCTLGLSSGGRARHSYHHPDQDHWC

Row | SMILES | Activity Category: %-Inhib (CaV2.2) @3 μM @30 mM KCl | inhibition at 3 µM
1 | C[S+]([O-])c1cc(Cl)ccc1C1CC(C)(S(=O)(=O)c2cccc(C(F)(F)F)c2)CCO1 (centres unmarked) [SC-289, 2-[4-Chloro-2-(methylsulfinyl)-phenyl]-4-methyl-4-[[3-(trifluoromethyl)phenyl]sulfonyl]-tetrahydro-pyran] | C (%-Inhibition >40% up to ≦75%) | 
2 | C[S+]([O-])c1cc(Cl)ccc1C1CC(C)(S(=O)(=O)c2cccc(C(F)(F)F)c2)CCO1 (centres unmarked) [SC-290, 2-[4-Chloro-2-(methylsulfinyl)-phenyl]-4-methyl-4-[[3-(trifluoromethyl)phenyl]sulfonyl]-tetrahydro-pyran] | B (%-Inhibition >75% up to ≦95%) | 
3 | C[S+]([O-])c1cc(Cl)ccc1C1CC(C)(S(=O)(=O)c2cccc(C(F)(F)F)c2)CCO1 (centres unmarked) [SC-291, 2-[4-Chloro-2-(methylsulfinyl)-phenyl]-4-methyl-4-[[3-(trifluoromethyl)phenyl]sulfonyl]-tetrahydro-pyran] | A (%-Inhibition >95%) | 
4 | CC1(S(=O)(=O)c2cccc(C(F)(F)F)n2)CCOC(c2ccc(S(C)(=O)=O)cc2)C1 (centres unmarked) [SC-293, 2-[[4-Methyl-2-(4-methylsulfonyl-phenyl)-tetrahydro-pyran-4-yl]sulfonyl]-6-(trifluoromethyl)-pyridine] |  | 40 to 75%
5 | CC1(S(=O)(=O)c2cccc(C(F)(F)F)c2)CCOC(c2cc(S(C)(=O)=O)ccc2F)C1 (centres unmarked) [SC-294, 2-(2-Fluoro-5-methylsulfonyl-phenyl)-4-methyl-4-[[3-(trifluoromethyl)phenyl]sulfonyl]-tetrahydro-pyran] |  | 75 to 95%
6 | CC1(S(=O)(=O)c2cccc(C(F)(F)F)c2)CCOC(c2cc(F)cc(S(C)(=O)=O)c2)C1 (centres unmarked) [SC-296, 2-(3-Fluoro-5-methylsulfonyl-phenyl)-4-methyl-4-[[3-(trifluoromethyl)phenyl]sulfonyl]-tetrahydro-pyran] |  | 75 to 95%
7 | CC1(S(=O)(=O)c2cccc(C(F)(F)F)c2)CCOC(c2cc(F)cc(S(C)(=O)=O)c2)C1 (centres unmarked) [SC-297, 2-(3-Fluoro-5-methylsulfonyl-phenyl)-4-methyl-4-[[3-(trifluoromethyl)phenyl]sulfonyl]-tetrahydro-pyran] | A (%-Inhibition >95%) | 
8 | CC1(C)CC(C)(S(=O)(=O)c2cccc(C(F)(F)F)c2)CC(c2ccc(Cl)cc2)O1 (centres unmarked) [SC-300, 6-(4-Chlorophenyl)-2,2,4-trimethyl-4-[[3-(trifluoromethyl)phenyl]sulfonyl]-tetrahydro-pyran] |  | > 95%
9 | CC1(C)CC(C)(S(=O)(=O)c2cccc(C(F)(F)F)c2)CC(c2ccc(Cl)cc2)O1 (centres unmarked) [SC-301, 6-(4-Chlorophenyl)-2,2,4-trimethyl-4-[[3-(trifluoromethyl)phenyl]sulfonyl]-tetrahydro-pyran] | B (%-Inhibition >75% up to ≦95%) | 
10 | CC1(S(=O)(=O)c2cc(F)cc(C(F)(F)F)c2)CCOC(c2ccc(Cl)cc2)C1 (centres unmarked) [SC-303, 2-(4-Chlorophenyl)-4-[[3-fluoro-5-(trifluoromethyl)-phenyl]sulfonyl]-4-methyl-tetrahydro-pyran] |  | 75 to 95%
11 | CC1(S(=O)(=O)c2cc(F)cc(C(F)(F)F)c2)CCOC(c2ccc(Cl)cc2)C1 (centres unmarked) [SC-304, 2-(4-Chlorophenyl)-4-[[3-fluoro-5-(trifluoromethyl)-phenyl]sulfonyl]-4-methyl-tetrahydro-pyran] | A (%-Inhibition >95%) | 
12 | CCC1(S(=O)(=O)c2cccc(C(F)(F)F)c2)CCOC(C2CC2)C1 (centres unmarked) [SC-306, 2-Cyclopropyl-4-ethyl-4-[[3-(trifluoromethyl)phenyl]sulfonyl]-tetrahydro-pyran] |  | 40 to 75%
13 | CC1(S(=O)(=O)c2cccc(C(F)(F)F)c2)CCOC(c2ccc(Cl)cc2)C1 (centres unmarked) [SC-310, 2-(4-Chlorophenyl)-4-methyl-4-[[3-(trifluoromethyl)phenyl]sulfonyl]-tetrahydro-pyran] |  | > 95%
14 | CC1(S(=O)(=O)c2cccc(C(F)(F)F)c2)CCOC(c2ccc(Cl)cc2)C1 (centres unmarked) [SC-311, 2-(4-Chlorophenyl)-4-methyl-4-[[3-(trifluoromethyl)phenyl]sulfonyl]-tetrahydro-pyran] | A (%-Inhibition >95%) | 
15 | CC1(S(=O)(=O)c2cccc(C(F)(F)F)c2)CCOC(c2ccc(Cl)cc2)C1 (centres unmarked) [SC-312, 2-(4-Chlorophenyl)-4-methyl-4-[[3-(trifluoromethyl)phenyl]sulfonyl]-tetrahydro-pyran] | B (%-Inhibition >75% up to ≦95%) | 
16 | CC1(S(=O)(=O)c2cccc(OC(F)(F)F)c2)CCOC(c2ccc(Cl)cc2)C1 (centres unmarked) [SC-313, 2-(4-Chlorophenyl)-4-methyl-4-[[3-(trifluoromethyloxy)-phenyl]sulfonyl]-tetrahydro-pyran] |  | > 95%
17 | O=S(=O)(c1cccc(C(F)(F)F)c1)C1CCOC(c2ccc(Cl)cc2)C1 (centres unmarked) [SC-401, 2-(4-Chlorophenyl)-4-[[3-(trifluoromethyl)phenyl]sulfonyl]-tetrahydro-pyran] |  | 75 to 95%
18 | O=S(=O)(c1cccc(C(F)(F)F)c1)C1CCOC(c2ccc(Cl)cc2)C1 (centres unmarked) [SC-402, 2-(4-Chlorophenyl)-4-[[3-(trifluoromethyl)phenyl]sulfonyl]-tetrahydro-pyran] | A (%-Inhibition >95%) | 
19 | CC(C)Oc1cccc(S(=O)(=O)C2(C)CCOC(c3ccc(S(C)(=O)=O)cc3F)C2)c1 (centres unmarked) [SC-500, 2-(2-Fluoro-4-methylsulfonyl-phenyl)-4-[(3-isopropoxy-phenyl)sulfonyl]-4-methyl-tetrahydro-pyran] |  | 75 to 95%
20 | CC1(S(=O)(=O)c2cccc(OC(F)(F)F)c2)CCOC(c2ccc(S(C)(=O)=O)cc2F)C1 (centres unmarked) [SC-502, 2-(2-Fluoro-4-methylsulfonyl-phenyl)-4-methyl-4-[[3-(trifluoromethyloxy)-phenyl]sulfonyl]-tetrahydro-pyran] |  | > 95%
21 | CC(C)c1cccc(S(=O)(=O)C2(C)CCOC(c3ccc(S(C)(=O)=O)cc3F)C2)c1 (centres unmarked) [SC-506, 2-(2-Fluoro-4-methylsulfonyl-phenyl)-4-[(3-isopropyl-phenyl)sulfonyl]-4-methyl-tetrahydro-pyran] |  | > 95%
22 | CC1(S(=O)(=O)c2cccc(C(F)F)c2)CCOC(c2ccc(S(C)(=O)=O)cc2F)C1 (centres unmarked) [SC-509, 4-[[3-(Difluoro-methyl)-phenyl]sulfonyl]-2-(2-fluoro-4-methylsulfonyl-phenyl)-4-methyl-tetrahydro-pyran] |  | 75 to 95%
23 | CC1(S(=O)(=O)c2cccc(C(F)F)c2)CCOC(c2ccc(S(C)(=O)=O)cc2F)C1 (centres unmarked) [SC-510, 4-[[3-(Difluoro-methyl)-phenyl]sulfonyl]-2-(2-fluoro-4-methylsulfonyl-phenyl)-4-methyl-tetrahydro-pyran] | A (%-Inhibition >95%) | 
24 | CC1(S(=O)(=O)c2cccc(C3CC3)c2)CCOC(c2ccc(S(C)(=O)=O)cc2F)C1 (centres unmarked) [SC-512, 4-[(3-Cyclopropyl-phenyl)sulfonyl]-2-(2-fluoro-4-methylsulfonyl-phenyl)-4-methyl-tetrahydro-pyran] |  | 75 to 95%
25 | CC1(S(=O)(=O)c2cccc(C3CC3)c2)CCOC(c2ccc(S(C)(=O)=O)cc2F)C1 (centres unmarked) [SC-513, 4-[(3-Cyclopropyl-phenyl)sulfonyl]-2-(2-fluoro-4-methylsulfonyl-phenyl)-4-methyl-tetrahydro-pyran] | A (%-Inhibition >95%) | 
26 | CC1(S(=O)(=O)c2cccc(OC(F)F)c2)CCOC(c2ccc(S(C)(=O)=O)cc2F)C1 (centres unmarked) [SC-516, 4-[[3-(Difluoro-methoxy)-phenyl]sulfonyl]-2-(2-fluoro-4-methylsulfonyl-phenyl)-4-methyl-tetrahydro-pyran] | C (%-Inhibition >40% up to ≦75%) | 
27 | CC1(S(=O)(=O)c2cccc(OC(F)F)c2)CCOC(c2ccc(S(C)(=O)=O)cc2F)C1 (centres unmarked) [SC-517, 4-[[3-(Difluoro-methoxy)-phenyl]sulfonyl]-2-(2-fluoro-4-methylsulfonyl-phenyl)-4-methyl-tetrahydro-pyran] | B (%-Inhibition >75% up to ≦95%) | 
28 | CC1(S(=O)(=O)c2cc(F)cc(C(F)(F)F)c2)CCOC(c2ccc(S(C)(=O)=O)cc2F)C1 (centres unmarked) [SC-518, 2-(2-Fluoro-4-methylsulfonyl-phenyl)-4-[[3-fluoro-5-(trifluoromethyl)-phenyl]sulfonyl]-4-methyl-tetrahydro-pyran] |  | 75 to 95%
29 | CC1(S(=O)(=O)c2cc(F)cc(C(F)(F)F)c2)CCOC(c2ccc(S(C)(=O)=O)cc2F)C1 (centres unmarked) [SC-519, 2-(2-Fluoro-4-methylsulfonyl-phenyl)-4-[[3-fluoro-5-(trifluoromethyl)-phenyl]sulfonyl]-4-methyl-tetrahydro-pyran] | A (%-Inhibition >95%) | 
